This is an account of results in patent publication EP4707279A1, “SUBSTITUTED TRICYCLIC HETEROCYCLIC COMPOUND AS PHARMACEUTICAL FOR TREATMENT OR PREVENTION OF COVID-19” (priority 2023, dated 2024).

One series concerns Caco-2 cells.
Assay: not given
The following applies: 48 hours, CellTiter-Glo. The method, then: (§1) To evaluate the cytotoxicity of the selected compound, CellTiter-Glo (registered trademark) Luminescent Cell Viability Assay (Promega Corporation, Madison, WI, USA) was conducted. Briefly, VeroE6-TMPRSS2 or Caco-2 cells (4×10^4 cells/well) were incubated with different concentrations of the compound for 48 hours, and then, the number of cells was measured as the amount of ATP in the cell lysate supernatant using CellTiter-Glo (registered trademark) Luminescent Cell Viability Assay method. The CC50 of the compound was calculated by GraphPad. The repeated test was conducted three times.
(§2) VeroE6 (ATCC CRL-1586 (registered trademark)) and Vero E6-TMPRSS2 (BPS Bioscience Catalog #78081) as well as Caco-2 cells (ATCC HTB-37 (registered trademark)) were purchased as commercial products and they were passaged in Dulbecco's Modified Eagle Medium (DMEM, Gibco, CA, USA) supplemented with 10% heat-inactivated fetal bovine serum (FBS, Gibco, CA, USA), 50 U/mL penicillin, and 50 µg/mL streptomycin. All antibiotics and supplements were purchased from Thermo Fisher Scientific, Inc. (Waltham, MA).
(In general: In ATP-based viability assays light output follows the ATP content of the culture.)
One may read the CC50 as the concentration giving 50% cytotoxicity. Low values mean harm at low concentration, high ones better tolerance by the cells. The compound `O=C(NCc1ccc2ccccc2c1)[C@@H]1CC[C@H]2N1C(=O)[C@@H](Cc1ccccc1)N1C(=O)N(Cc3ccccc3)C(=O)N(Cc3ccccc3)[C@]21O` [Compound 1D, (6R,9S,11aR,11bR)-1,3,6-Tribenzyl-11b-hydroxy-N-(naphthalen-2-ylmethyl)-2,4,7-trioxo-2H-pyrrolo[2',1':3,4] pyridazine[1,2-a][1,3,5]triazine-9-carboxamide] displayed a CC50 above 400 µM.

Another series relates to VeroE6-TMPRSS2 cells.
Assay: not given
The following applies: 48 hours, CellTiter-Glo. The method, then: as §1, §2
As for `O=C(NCc1ccc2ccccc2c1)[C@@H]1CC[C@H]2N1C(=O)[C@@H](Cc1ccccc1)N1C(=O)N(Cc3ccccc3)C(=O)N(Cc3ccccc3)[C@]21O` [Compound 1D, (6R,9S,11aR,11bR)-1,3,6-Tribenzyl-11b-hydroxy-N-(naphthalen-2-ylmethyl)-2,4,7-trioxo-2H-pyrrolo[2',1':3,4] pyridazine[1,2-a][1,3,5]triazine-9-carboxamide], it took 145 µM to reach half-maximal cytotoxicity (CC50).

The next series relates to SARS-CoV-2. Kind of series: CPE inhibition assay, anti-SARS-CoV-2 virus activity in vitro (Test Example 4). The series is classed as cell-based. The following applies: 10 µM.
With `O=C(NCc1ccc2ccccc2c1)[C@@H]1CC[C@H]2N1C(=O)[C@@H](Cc1ccccc1)N1C(=O)N(Cc3ccccc3)C(=O)N(Cc3ccccc3)[C@]21O` [Compound 1D, (6R,9S,11aR,11bR)-1,3,6-Tribenzyl-11b-hydroxy-N-(naphthalen-2-ylmethyl)-2,4,7-trioxo-2H-pyrrolo[2',1':3,4] pyridazine[1,2-a][1,3,5]triazine-9-carboxamide], the “Anti SARS-CoV-2 activity” value is listed as “A (a CPE inhibition effect of 5% or more)”.

Still in this series, the particulars now being: CPE inhibition at 10 µM; VeroE6-TMPRSS2 cells; MOI 0.01; third day post infection; average of three tests.
Turning to “(6R,9S,11aR,11bR)-1,3-Dibenzyl-11b-hydroxy-6-isopropyl-2,4,7-trioxo-phenyl-deca-hydro-2H-pyrrolo [2',1':3,4]pyrazino[1, 2-a][1,3,5]triazine-9-carboxamide [Compound 3G]”, the “Anti SARS-CoV-2 activity” value is reported as “A (a CPE inhibition effect of 5% or more)”. Still for that read-out and setting: for `O=C(O)[C@@H]1CC[C@H]2N1C(=O)[C@@H](Cc1ccccc1)N1C(=O)N(Cc3ccccc3)C(=O)N(Cc3ccccc3)[C@]21O` [Compound 1C, (6R,9S,11aR,11bR)-1,3,6-Tribenzyl-11b-hydroxy-2,4,7-trioxo-2H-pyrrolo[2',1':3,4]pyridazino[1,2-a][1,3,5] triazine-9-carboxylic acid] the value was “C (less than 1%)”. Turning to “(6S,9R,11aS,11bS)-1,3,6-Tri benzyl-11b-hydroxy-2,4,7-tri oxodecahydro-2H-pyrrolo [2',1':3,4]pyridazine[1,2-a] [1,3,5]triazine-9-carboxylic acid [Compound 4C]”, the “Anti SARS-CoV-2 activity” value is given as “C (less than 1%)”.

On to `CC(C)OC(=O)[C@@H]1CC[C@H]2N1C(=O)[C@@H](Cc1ccccc1)N1C(=O)N(Cc3cccs3)C(=O)N(Cc3cccs3)[C@]21O` [Compound 18G, Isopropyl (6R,9S,11aR,11bR)-6-benzyl-11b-hydroxy-2,4,7-trioxo-1,3-bis(thiophen-2-ylmethyl)decahydro-2H-pyrrolo [2',1':3,4]pyridazine[1,2-a][1,3,5]triazine-9-carboxylate], for which the “Anti SARS-CoV-2 activity” value was “A (a CPE inhibition effect of 5% or more)”. On the same count and under the same terms, to “(6R,9S,11aR)-11b-Hydroxy-6-isopropyl-N-(naphthalen-2-ylmethyl)-2,4,7-trioxo-1,3-bis(thien-2-ylmethyl)decahydro- 2H-pyrrolo[2',1':3,4] pyridazine[1,2-a][1,3,5] triazine-9-carboxamide [Compound 27D]” belongs “A (a CPE inhibition effect of 5% or more)”. Same read-out and setting: for `CC(C)[C@@H]1C(=O)N2[C@H](C3=NCc4cn(-c5c[nH]c6ccccc56)c5cccc3c45)CC[C@@H]2[C@@]2(O)N(Cc3ccccc3)C(=O)N(Cc3ccccc3)C(=O)N12` [Compound 3H, (6R,95,11aR,11bR)-9-(1-((1H-indole-3-yl))-1,3-dihydropyrrolo[4,3,2-de]isoquinolin-5-yl)-1,3-dibenzyl-11b-hydroxy-6-isopropylhexahydro-2H-pyrrolo [2',1':3,4]pyridazine [1,2-a][1,3,5] triazine-2,4,7 (3H. 6H)-trione] the value was “A (a CPE inhibition effect of 5% or more)”. Still for that read-out and setting: to “(6R,9S,11aR,11bR)-1,3-bis(furan-2-ylmethyl)-11b-hydroxy-6-isopropyl-N-(naphthalen-2-ylmethyl)-2,4,7-trioxodecahydro-2H-pyrrolo[2',1':3,4]pyridazin e[1,2-a] [1,3,5]triazine-9-carboxamide [Compound 28D]” belongs “A (a CPE inhibition effect of 5% or more)”.

“(6S,11a8)-1,3,6-tribenzyl-11b-hydroxy-11a-methylhexahydro-2H-pyrrolo[2',1':3,4]pyrazino [1,2-a][1,3,5]triazine-2,4,7(3H,6 H)-trione [Compound 12A]”: the “Anti SARS-CoV-2 activity” value is listed as “B (a CPE inhibition effect of less than 5% but 1% or more)”.

Consider `O=C1[C@@H](Cc2ccccc2)N2C(=O)N(Cc3ccccc3)C(=O)N(Cc3ccccc3)[C@]2(O)[C@H]2CC[C@@H](CNCc3ccc4ccccc4c3)N12` [Compound 1F, (6R,9S,11aR,11bR)-1,3,6-Tribenzyl-11b-hydroxy-9-(((naphthalen-2-ylmethyl)amino)methyl)hexahydro-2H-pyrrolo[2',1':3,4]pyridazine[1,2-a][1,3,5]triazine-2,4,7(3H,6H)-trione], for which the “Anti SARS-CoV-2 activity” value is reported as “C (less than 1%)”. On the same count and under the same terms, to “(6R.9S)-1.3-benzyl-6-(4-fluorobenzyl)-N-(naphthalen-2-ylmethyl)-2, 4,7-trioxo-1,3,4,6,7,9,10,11-octahydro-2H-pyrrolo [2',1':3,4]pyridazine [1,2-a][1,3,5]triazine-9-carboxamide [Compound 5E]” belongs “C (less than 1%)”; to “(6S,13aS)-1,3,6-tribenzyl-13b-hydroxy-1,13,13a,13b-tetrahydro-2H-[1,3,5] triazino[2',1':3,4]pyraz ino[1,2-a]indole-2,4.7(3H,6H)-trione [Compound 24A]”, “C (less than 1%)”; to “Ethyl (6R)-1,3,6-tribenzyl-11b-hydroxy-2,4,7-trioxodecahydro-2H-pyrrolo[2',1':3,4] pyridazino[1,2-a] [1,3,5]triazine-9-carboxylate [Compound 22A]”, “B (a CPE inhibition effect of less than 5% but 1% or more)”.

The same series, now with this note: Severe acute respiratory syndrome coronavirus 2, VeroE6/TMPRSS2, 72 h, read-out: Anti SARS-CoV-2 activity.
As for `CCOC(=O)[C@H]1CC[C@@H]2N1C(=O)[C@H](C(C)C)N1C(=O)N(Cc3ccccc3)C(=O)N(Cc3ccccc3)[C@@]21O` [Compound 26A, Ethyl (6S,9R,11aS,11bS)-1,3-dibenzyl-11b-hydroxy-6-isopropyl-2,4,7-trioxodecahydro-2H-pyrrolo[2',1':3,4]pyrazi no[1,2-a][1,3,5] triazine-9-carboxylate], the inhibition at 10 µM was above 5%. As for `O=C(NCc1ccc2ccccc2c1)[C@@H]1CCC2=C3N(Cc4ccccc4)C(=O)N(Cc4ccccc4)C(=O)N3[C@H](Cc3ccccc3)C(=O)N21` [Compound 1E, (6R,9S)-1,3,6-Tribenzyl-N-(naphthalen-2-ylmethyl)-2,4,7-trioxo-1,3,4,6,7,9,10,11-octahydro-2H-pyrrolo[2',1':3,4] pyrazino[1,2-a][1,3,5]triazine-9-carboxamide], the inhibition at 10 µM is below 1%. Same read-out and setting: to `CCOC(=O)[C@@H]1CC[C@H]2N1C(=O)[C@@H](Cc1ccccc1)N1C(=O)N(Cc3ccccc3)C(=O)N(Cc3ccccc3)[C@]21O` [Compound 1A, Ethyl (6R,9S,11aR,11bR)-1,3,6-tribenzyl-11b-hydroxy-2,4,7-trioxodecahydro-2H-pyrrolo[2',1':3,4]pyrazino[1,2-a][1,3,5]triazine-9-carboxylate] belongs below 1%.

The subject of the next series is SARS-CoV-2. Put plainly: microbe, parasite or virus in culture. The series is classed as cell-based. The following applies: Severe acute respiratory syndrome coronavirus 2, VeroE6-TMPRSS2 cells, read-out: inhibition of CPE.
Turning to `CCC(CC)COC(=O)[C@H](C)N[P@](=O)(OC[C@H]1O[C@@](C#N)(c2ccc3c(N)ncnn23)[C@H](O)[C@@H]1O)Oc1ccccc1` [Remdesivir], the inhibition at 10 µM was at least 90%.
